From patent US9580449B2, “Compositions and methods for the production of pyrimidine and pyridine compounds with BTK inhibitory activity” (Merck Patent GmbH, priority 2011, dated 2017)

Molecular target: full-length human BTK (Homo sapiens (Human), UniProt Q06187)
Experiment: BTK IC50 enzyme assay (microfluidic off-chip mobility shift kinase assay)
Assay type: biochemical
Conditions: incubated for 90 min. at 27 C; read-out: Time Dependent BTK Enzyme Assay IC50
Outline: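 Read-out separates phosphorylated peptide product from substrate by charge/mass in a mobility shift format with full-length human BTK.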

Sequence of full-length human BTK (Q06187 whole entry): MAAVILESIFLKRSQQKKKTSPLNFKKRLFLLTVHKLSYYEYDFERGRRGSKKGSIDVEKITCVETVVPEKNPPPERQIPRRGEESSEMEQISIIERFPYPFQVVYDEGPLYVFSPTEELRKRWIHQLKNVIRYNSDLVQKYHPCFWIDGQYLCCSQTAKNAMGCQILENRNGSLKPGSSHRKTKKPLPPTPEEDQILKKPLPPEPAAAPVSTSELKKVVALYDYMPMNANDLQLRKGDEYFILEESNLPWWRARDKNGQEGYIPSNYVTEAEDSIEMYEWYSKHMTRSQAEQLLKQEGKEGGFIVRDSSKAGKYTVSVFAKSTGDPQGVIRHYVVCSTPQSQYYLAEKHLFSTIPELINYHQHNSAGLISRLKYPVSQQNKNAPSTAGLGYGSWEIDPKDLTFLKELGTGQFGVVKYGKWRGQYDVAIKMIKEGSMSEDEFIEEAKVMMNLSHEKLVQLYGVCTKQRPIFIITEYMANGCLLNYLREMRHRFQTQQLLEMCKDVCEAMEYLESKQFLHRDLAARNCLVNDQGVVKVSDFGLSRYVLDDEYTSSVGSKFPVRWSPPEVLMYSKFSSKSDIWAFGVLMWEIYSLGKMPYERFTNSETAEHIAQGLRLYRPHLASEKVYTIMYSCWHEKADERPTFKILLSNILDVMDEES

`CN(C)C/C=C/C(=O)N1CCCC(Nc2ncnc(N)c2-c2ccc(Oc3ccccc3)cc2)C1` (centres unmarked) [A160, (E)-1-(3-((6-amino-5-(4-phenoxyphenyl)pyrimidin-4-yl)amino)piperidin-1-yl)-4-(dimethylamino)but-2-en-1-one] and `C=CC(=O)N1CC(Nc2ncnc(N)c2-c2ccc(Oc3ccccc3)cc2)C1` [A185, 1-(3-((6-amino-5-(4-phenoxyphenyl)pyrimidin-4-yl)amino)azetidin-1-yl)prop-2-en-1-one] cannot be ordered by IC50: less than 1000 nM for the first, less than 100 nM for the second.

`C=CC(=O)Nc1ccc(F)c(Oc2ncnc(N)c2-c2ccc(Oc3ccccc3)nc2)c1` [A161, N-(3-((6-amino-5-(6-phenoxypyridin-3-yl)pyrimidin-4-yl)oxy)-4-fluorophenyl)acrylamide] and `C=CC(=O)Nc1cccc(Oc2ncnc(N)c2-c2ccc(Oc3ccccc3F)nc2)c1` [A165, N-(3-((6-amino-5-(6-(2-fluorophenoxy)pyridin-3-yl)pyrimidin-4-yl)oxy)phenyl)acrylamide] cannot be ordered by IC50: less than 100 nM for the first, less than 100 nM for the second.

`C=CC(=O)Nc1cccc(Oc2ncnc(N)c2-c2ccc(Oc3ccccn3)cc2)c1` [A162, N-(3-((6-amino-5-(4-(pyridin-2-yloxy)phenyl)pyrimidin-4-yl)oxy)phenyl)acrylamide] and `C=CC(=O)Nc1cccc(Oc2ncnc(N)c2-c2ccc(Oc3ccc(F)cc3)nc2)c1` [A166, N-(3-((6-amino-5-(6-(4-fluorophenoxy)pyridin-3-yl)pyrimidin-4-yl)oxy)phenyl)acrylamide] cannot be ordered by IC50: less than 100 nM for the first, less than 1000 nM for the second.

`C=CC(=O)Nc1cccc(Oc2ncnc(N)c2-c2cccc(S(N)(=O)=O)c2)c1` [A163, N-(3-((6-amino-5-(3-sulfamoylphenyl)pyrimidin-4-yl)oxy)phenyl)acrylamide] and `C=CC(=O)Nc1cccc(Oc2ncnc(N)c2-c2cccc(OC(F)(F)F)c2)c1` [A164, N-(3-((6-amino-5-(3-(trifluoromethoxy)phenyl)pyrimidin-4-yl)oxy)phenyl)acrylamide] cannot be ordered by IC50: greater than 1000 nM for the first, greater than 1000 nM for the second.

`C=CC(=O)Nc1cccc(Nc2ncncc2-c2ccc(Oc3ccccc3)cc2)n1` [A167, N-(6-((5-(4-phenoxyphenyl)pyrimidin-4-yl)amino)pyridin-2-yl)acrylamide] and `C=CC(=O)Nc1cncc(Nc2ncnc(N)c2-c2ccc(Oc3ccccc3)cc2)c1` [A186, N-(5-((6-amino-5-(4-phenoxyphenyl)pyrimidin-4-yl)amino)pyridin-3-yl)acrylamide] cannot be ordered by IC50: less than 100 nM for the first, less than 100 nM for the second.

`C=CC(=O)N1CCC(O)(CNc2ncnc(N)c2-c2ccc(Oc3cccc(C(F)(F)F)c3)cc2)CC1` [A169, 1-(4-(((6-amino-5-(4-(3-(trifluoromethyl)phenoxy)phenyl)pyrimidin-4-yl)amino)methyl)-4-hydroxypiperidin-1-yl)prop-2-en-1-one] and `C=CC(=O)N1CC[C@@H](CNc2ncnc(N)c2-c2ccc(Oc3cccc(C(F)(F)F)c3)cc2)[C@H](O)C1` [A170, 1-((3S,4S)-4-(((6-amino-5-(4-(3-(trifluoromethyl)phenoxy)phenyl)pyrimidin-4-yl)amino)methyl)-3-hydroxypiperidin-1-yl)prop-2-en-1-one] cannot be ordered by IC50: less than 100 nM for the first, less than 100 nM for the second.

`C=CC(=O)NC12CCC(Nc3ncnc(N)c3-c3ccc(Oc4ccccc4)cc3)(C1)C2` [A177, N-(4-((6-amino-5-(4-phenoxyphenyl)pyrimidin-4-yl)amino)bicyclo[2.1.1]hexan-1-yl)acrylamide] and `C=CC(=O)NC1CC(CNc2ncnc(N)c2-c2ccc(Oc3ccccc3)cc2)C1` (centres unmarked) [A182, N-(3-(((6-amino-5-(4-phenoxyphenyl)pyrimidin-4-yl)amino)methyl)cyclobutyl)acrylamide] cannot be ordered by IC50: less than 100 nM for the first, less than 100 nM for the second.

`Nc1ncnc(N[C@@H]2CCN(S(=O)(=O)c3c(F)c(F)c(F)c(F)c3F)C2)c1-c1ccc(Oc2ccccc2)cc1` [A178, (R)-N4-(1-((perfluorophenyl)sulfonyl)pyrrolidin-3-yl)-5-(4-phenoxyphenyl)pyrimidine-4,6-diamine] and `Nc1ncnc(N[C@@H]2CCCN(S(=O)(=O)c3c(F)c(F)c(F)c(F)c3F)C2)c1-c1ccc(Oc2ccccc2)cc1` [A179, (R)-N4-(1-((perfluorophenyl)sulfonyl)piperidin-3-yl)-5-(4-phenoxyphenyl)pyrimidine-4,6-diamine] cannot be ordered by IC50: less than 100 nM for the first, less than 1000 nM for the second.

`C=CC(=O)N1CCC[C@@H](Nc2ncnc(N)c2-c2cnn(Cc3ccccc3)c2)C1` [A180, (R)-1-(3-((6-amino-5-(1-benzyl-1H-pyrazol-4-yl)pyrimidin-4-yl)amino)piperidin-1-yl)prop-2-en-1-one] and `C=CC(=O)N1CC[C@@H](COc2ncnc(N)c2-c2cnn(Cc3ccccc3)c2)C1` [A196, (R)-1-(3-(((6-amino-5-(1-benzyl-1H-pyrazol-4-yl)pyrimidin-4-yl)oxy)methyl)pyrrolidin-1-yl)prop-2-en-1-one] cannot be ordered by IC50: less than 1000 nM for the first, less than 1000 nM for the second.

`C=CC(=O)Nc1cccc(Oc2ncnc(N)c2-c2cnn(Cc3cc(F)cc(F)c3)c2)c1` [A183, N-(3-((6-amino-5-(1-(3,5-difluorobenzyl)-1H-pyrazol-4-yl)pyrimidin-4-yl)oxy)phenyl)acrylamide] and `C=CC(=O)Nc1cccc(Oc2ncnc(N)c2-c2cnn(Cc3ccc(F)cc3)c2)c1` [A187, N-(3-((6-amino-5-(1-(4-fluorobenzyl)-1H-pyrazol-4-yl)pyrimidin-4-yl)oxy)phenyl)acrylamide] cannot be ordered by IC50: less than 100 nM for the first, less than 100 nM for the second.

`C=CC(=O)Nc1cccc(Oc2ncnc(N)c2-c2cnn(Cc3ccccc3F)c2)c1` [A184, N-(3-((6-amino-5-(1-(2-fluorobenzyl)-1H-pyrazol-4-yl)pyrimidin-4-yl)oxy)phenyl)acrylamide] and `C=CC(=O)Nc1cccc(Oc2ncnc(N)c2-c2cnn(Cc3ccccc3C#N)c2)c1` [A194, N-(3-((6-amino-5-(1-(2-cyanobenzyl)-1H-pyrazol-4-yl)pyrimidin-4-yl)oxy)phenyl)acrylamide] cannot be ordered by IC50: less than 100 nM for the first, less than 100 nM for the second.

`C=CC(=O)Nc1cncc(Oc2ncnc(N)c2-c2cnn(Cc3ccccc3)c2)c1` [A189, N-(5-((6-amino-5-(1-benzyl-1H-pyrazol-4-yl)pyrimidin-4-yl)oxy)pyridin-3-yl)acrylamide] and `C=CC(=O)Nc1cccc(Oc2ncnc(N)c2-c2cnn(Cc3cccc(Cl)c3)c2)c1` [A191, N-(3-((6-amino-5-(1-(3-chlorobenzyl)-1H-pyrazol-4-yl)pyrimidin-4-yl)oxy)phenyl)acrylamide] cannot be ordered by IC50: less than 100 nM for the first, less than 100 nM for the second.

`C=CC(=O)Nc1cccc(Oc2ncnc(N)c2-c2cnn(Cc3cccc(C)c3)c2)c1` [A190, N-(3-((6-amino-5-(1-(3-methylbenzyl)-1H-pyrazol-4-yl)pyrimidin-4-yl)oxy)phenyl)acrylamide] and `C=CC(=O)Nc1cccc(Oc2ncnc(N)c2-c2cnn(Cc3cccc(OC)c3)c2)c1` [A198, N-(3-((6-amino-5-(1-(3-methoxybenzyl)-1H-pyrazol-4-yl)pyrimidin-4-yl)oxy)phenyl)acrylamide] cannot be ordered by IC50: less than 100 nM for the first, less than 100 nM for the second.

Compared with `C=CC(=O)N1CCO[C@@H](COc2ncnc(N)c2-c2cnn(Cc3ccccc3)c2)C1` [A192, (R)-1-(2-(((6-amino-5-(1-benzyl-1H-pyrazol-4-yl)pyrimidin-4-yl)oxy)methyl)morpholino)prop-2-en-1-one], `C=CC(=O)N1CCO[C@H](COc2ncnc(N)c2-c2cnn(Cc3ccccc3)c2)C1` [A193, (S)-1-(2-(((6-amino-5-(1-benzyl-1H-pyrazol-4-yl)pyrimidin-4-yl)oxy)methyl)morpholino)prop-2-en-1-one] is higher in IC50: less than 1000 nM for the first, greater than 1000 nM for the second. The first is the more potent here.

`C=CC(=O)Nc1cccc(Oc2ncnc(N)c2-c2cnn(Cc3cccc(C(F)(F)F)c3)c2)c1` [A195, N-(3-((6-amino-5-(1-(3-(trifluoromethyl)benzyl)-1H-pyrazol-4-yl)pyrimidin-4-yl)oxy)phenyl)acrylamide] and `C=CC(=O)Nc1cccc(Oc2ncnc(N)c2-c2cnn(Cc3cccc(C#N)c3)c2)c1` [A203, N-(3-((6-amino-5-(1-(3-cyanobenzyl)-1H-pyrazol-4-yl)pyrimidin-4-yl)oxy)phenyl)acrylamide] cannot be ordered by IC50: less than 100 nM for the first, less than 100 nM for the second.

`C=CC(=O)N1CCO[C@@H](COc2ncnc(N)c2-c2ccc(Oc3ccc(C#N)cc3)cc2)C1` [A200, (R)-4-(4-(4-((4-acryloylmorpholin-2-yl)methoxy)-6-aminopyrimidin-5-yl)phenoxy)benzonitrile] and `C=CC(=O)N1CC[C@@H](COc2ncnc(N)c2-c2ccc(Oc3ccc(C#N)cc3)cc2)C1` [A201, (R)-4-(4-(4-((1-acryloylpyrrolidin-3-yl)methoxy)-6-aminopyrimidin-5-yl)phenoxy)benzonitrile] cannot be ordered by IC50: less than 1000 nM for the first, less than 1000 nM for the second.

`C=CC(=O)N1CC2(CC(Oc3ncnc(N)c3-c3ccc(Oc4ccc(C#N)cc4)cc3)C2)C1` [A202, 4-(4-(4-((2-acryloyl-2-azaspiro[3.3]heptan-6-yl)oxy)-6-aminopyrimidin-5-yl)phenoxy)benzonitrile] and `C=CC(=O)N1CC2(CC(Nc3ncnc(N)c3-c3ccc(Oc4ccc(C#N)cc4)cc3)C2)C1` [A207, 4-(4-(4-((2-acryloyl-2-azaspiro[3.3]heptan-6-yl)amino)-6-aminopyrimidin-5-yl)phenoxy)benzonitrile] cannot be ordered by IC50: less than 100 nM for the first, less than 1000 nM for the second.

`C=CC(=O)N1C[C@@H](F)C[C@H](Nc2ncnc(N)c2-c2ccc(Oc3ccccc3)cc2)C1` [A204, 1-((3S,5S)-3-((6-amino-5-(4-phenoxyphenyl)pyrimidin-4-yl)amino)-5-fluoropiperidin-1-yl)prop-2-en-1-one] and `C=CC(=O)N1C[C@H](F)C[C@@H](Nc2ncnc(N)c2-c2ccc(Oc3ccccc3)cc2)C1` [A205, 1-((3R,5R)-3-((6-amino-5-(4-phenoxyphenyl)pyrimidin-4-yl)amino)-5-fluoropiperidin-1-yl)prop-2-en-1-one] cannot be ordered by IC50: less than 100 nM for the first, less than 100 nM for the second.

Compared with `C=CC(=O)Nc1cccc(Oc2ncnc(N)c2-c2cnn(Cc3cccc(C(=O)OC)c3)c2)c1` [A206, methyl 3-((4-(4-(3-acrylamidophenoxy)-6-aminopyrimidin-5-yl)-1H-pyrazol-1-yl)methyl)benzoate], `C=CC(=O)N1C2CCC1CC(CNc1ncnc(N)c1-c1ccc(Oc3ccc(C#N)cc3)cc1)C2` (centres unmarked) [A208, 4-(4-(4-(((8-acryloyl-8-azabicyclo[3.2.1]octan-3-yl)methyl)amino)-6-aminopyrimidin-5-yl)phenoxy)benzonitrile] is higher in IC50: less than 100 nM for the first, greater than 1000 nM for the second.
